Data as given in patent US7041851B2, “Fluorinated phenyl thiophenyl derivatives and their use for imaging serotonin transporters” (The Trustees of the University of Pennsylvania, priority 2002, dated 2006).
Several values for one entry are separate records, joined by “and”; a condition that tells them apart may be missing. Equal entries are not always repeated.

Legend:
[1] = In vivo metabolism of [18F]ACF in rats; conditions: three rats, one hour after iv injection
Experimental: In vivo metabolism of [^18F]ACF ([^18F]25), in three rats was evaluated at one hour after iv injection.

[2] = Organ distribution and brain regional uptake of [18F]ACF in rats

CN(C)Cc1ccccc1Sc1cc([18F])c(Cl)cc1N [[^18F]ACF]
Activity extracted from the brain that was original compound (HPLC) [1]: 95.5±0.40%
Percentage of organic-extractable material, kidney [1]: 20.25±0.60%
Percentage of organic-extractable material, liver [1]: 20.03±6.60%
Percentage of organic-extractable material, plasma [1]: 6.76±1.00%
Organ distribution: Blood ([2]; 2 min after iv injection): 6.56 ± 0.64 % dose/organ
Organ distribution: Bone ([2]; 2 min after iv injection): 0.01 ± 0.00 % dose/organ
Organ distribution: Brain ([2]; 2 min after iv injection): 3.27±0.79 % dose/organ
Organ distribution: Heart ([2]; 2 min after iv injection): 1.69 ± 0.24 % dose/organ
Organ distribution: Kidney ([2]; 2 min after iv injection): 6.97 ± 0.73 % dose/organ
Organ distribution: Liver ([2]; 2 min after iv injection): 9.41 ± 1.82 % dose/organ
Organ distribution: Lung ([2]; 2 min after iv injection): 14.89 ± 2.28 % dose/organ
Organ distribution: Muscle ([2]; 2 min after iv injection): 14.34 ± 9.76 % dose/organ
Organ distribution: Skin ([2]; 2 min after iv injection): 4.76 ± 0.89 % dose/organ
Organ distribution: Spleen ([2]; 2 min after iv injection): 0.64 ± 0.20 % dose/organ
Ratio to Cerebellum: Cerebellum ([2]; 2 min after iv injection): 1.00 ± 0.00
Ratio to Cerebellum: Cortex ([2]; 2 min after iv injection): 1.84 ± 0.43
Ratio to Cerebellum: Hippocampus ([2]; 2 min after iv injection): 1.24 ± 0.15
Ratio to Cerebellum: Hypothalamus ([2]; 2 min after iv injection): 1.37 ± 0.19
Ratio to Cerebellum: Remainder ([2]; 2 min after iv injection): 1.32 ± 0.21
Ratio to Cerebellum: Striatum ([2]; 2 min after iv injection): 1.41 ± 0.31
Regional brain distribution: Cerebellum ([2]; 2 min after iv injection): 1.33 ± 0.51 % dose/g
Regional brain distribution: Cortex ([2]; 2 min after iv injection): 2.31 ± 0.46 % dose/g
Regional brain distribution: Hippocampus ([2]; 2 min after iv injection): 1.60 ± 0.46 % dose/g
Regional brain distribution: Hypothalamus ([2]; 2 min after iv injection): 1.76 ± 0.48 % dose/g
Regional brain distribution: Remainder ([2]; 2 min after iv injection): 1.69 ± 0.43 % dose/g
Regional brain distribution: Striatum ([2]; 2 min after iv injection): 1.78 ± 0.36 % dose/g
Organ distribution: Blood ([2]; 30 min after iv injection): 4.52 ± 0.22 % dose/organ
Organ distribution: Bone ([2]; 30 min after iv injection): 0.04 ± 0.03 % dose/organ
Organ distribution: Brain ([2]; 30 min after iv injection): 1.28 ± 0.14 % dose/organ
Organ distribution: Heart ([2]; 30 min after iv injection): 0.18 ± 0.02 % dose/organ
Organ distribution: Kidney ([2]; 30 min after iv injection): 2.64 ± 0.79 % dose/organ
Organ distribution: Liver ([2]; 30 min after iv injection): 15.20 ± 1.20 % dose/organ
Organ distribution: Lung ([2]; 30 min after iv injection): 1.76 ± 0.20 % dose/organ
Organ distribution: Muscle ([2]; 30 min after iv injection): 10.70 ± 1.68 % dose/organ
Organ distribution: Skin ([2]; 30 min after iv injection): 6.51 ± 0.66 % dose/organ
Organ distribution: Spleen ([2]; 30 min after iv injection): 0.29 ± 0.09 % dose/organ
Ratio to Cerebellum: Cerebellum ([2]; 30 min after iv injection): 1.00 ± 0.00
Ratio to Cerebellum: Cortex ([2]; 30 min after iv injection): 1.69 ± 0.20
Ratio to Cerebellum: Hippocampus ([2]; 30 min after iv injection): 1.89 ± 0.24
Ratio to Cerebellum: Hypothalamus ([2]; 30 min after iv injection): 2.29 ± 0.06
Ratio to Cerebellum: Remainder ([2]; 30 min after iv injection): 1.80 ± 0.11
Ratio to Cerebellum: Striatum ([2]; 30 min after iv injection): 2.06 ± 0.19
Regional brain distribution: Cerebellum ([2]; 30 min after iv injection): 0.37 ± 0.07 % dose/g
Regional brain distribution: Cortex ([2]; 30 min after iv injection): 0.62 ± 0.07 % dose/g
Regional brain distribution: Hippocampus ([2]; 30 min after iv injection): 0.70 ± 0.06 % dose/g
Regional brain distribution: Hypothalamus ([2]; 30 min after iv injection): 0.85 ± 0.14 % dose/g
Regional brain distribution: Remainder ([2]; 30 min after iv injection): 0.67 ± 0.09 % dose/g
Regional brain distribution: Striatum ([2]; 30 min after iv injection): 0.76 ± 0.08 % dose/g
Organ distribution: Blood ([2]; 60 min after iv injection): 4.65 ± 0.46 % dose/organ
Organ distribution: Bone ([2]; 60 min after iv injection): 0.08 ± 0.02 % dose/organ
Organ distribution: Brain ([2]; 60 min after iv injection): 0.69 ± 0.09 % dose/organ
Organ distribution: Heart ([2]; 60 min after iv injection): 0.11 ± 0.01 % dose/organ
Organ distribution: Kidney ([2]; 60 min after iv injection): 1.38 ± 0.25 % dose/organ
Organ distribution: Liver ([2]; 60 min after iv injection): 10.30 ± 2.50 % dose/organ
Organ distribution: Lung ([2]; 60 min after iv injection): 0.73 ± 0.08 % dose/organ
Organ distribution: Muscle ([2]; 60 min after iv injection): 7.69 ± 0.29 % dose/organ
Organ distribution: Skin ([2]; 60 min after iv injection): 5.97 ± 1.64 % dose/organ
Organ distribution: Spleen ([2]; 60 min after iv injection): 0.13 ± 0.02 % dose/organ
Ratio to Cerebellum: Cerebellum ([2]; 60 min after iv injection): 1.00 ± 0.00
Ratio to Cerebellum: Cortex ([2]; 60 min after iv injection): 2.10 ± 0.47
Ratio to Cerebellum: Hippocampus ([2]; 60 min after iv injection): 2.91 ± 0.64
Ratio to Cerebellum: Hypothalamus ([2]; 60 min after iv injection): 3.53 and 3.53 ± 0.33
Ratio to Cerebellum: Remainder ([2]; 60 min after iv injection): 2.56 ± 0.44
Ratio to Cerebellum: Striatum ([2]; 60 min after iv injection): 2.88 ± 0.52
Regional brain distribution: Cerebellum ([2]; 60 min after iv injection): 0.15 ± 0.03 % dose/g
Regional brain distribution: Cortex ([2]; 60 min after iv injection): 0.33 ± 0.13 % dose/g
Regional brain distribution: Hippocampus ([2]; 60 min after iv injection): 0.45 ± 0.13 % dose/g
Regional brain distribution: Hypothalamus ([2]; 60 min after iv injection): 0.54 ± 0.13 % dose/g
Regional brain distribution: Remainder ([2]; 60 min after iv injection): 0.39 ± 0.03 % dose/g
Regional brain distribution: Striatum ([2]; 60 min after iv injection): 0.45 ± 0.14 % dose/g
Organ distribution: Blood ([2]; 120 min after iv injection): 3.20 ± 0.57 % dose/organ
Organ distribution: Bone ([2]; 120 min after iv injection): 0.28 ± 0.06 % dose/organ
Organ distribution: Brain ([2]; 120 min after iv injection): 0.21 ± 0.03 % dose/organ
Organ distribution: Heart ([2]; 120 min after iv injection): 0.06 ± 0.01 % dose/organ
Organ distribution: Kidney ([2]; 120 min after iv injection): 0.78 ± 0.15 % dose/organ
Organ distribution: Liver ([2]; 120 min after iv injection): 5.90 ± 1.03 % dose/organ
Organ distribution: Lung ([2]; 120 min after iv injection): 0.32 ± 0.06 % dose/organ
Organ distribution: Muscle ([2]; 120 min after iv injection): 4.02 ± 1.22 % dose/organ
Organ distribution: Skin ([2]; 120 min after iv injection): 2.61 ± 0.17 % dose/organ
Organ distribution: Spleen ([2]; 120 min after iv injection): 0.06 ± 0.02 % dose/organ
Ratio to Cerebellum: Cerebellum ([2]; 120 min after iv injection): 1.00 ± 0.00
Ratio to Cerebellum: Cortex ([2]; 120 min after iv injection): 1.77 ± 0.04
Ratio to Cerebellum: Hippocampus ([2]; 120 min after iv injection): 2.67 ± 0.15
Ratio to Cerebellum: Hypothalamus ([2]; 120 min after iv injection): 3.23 ± 0.21
Ratio to Cerebellum: Remainder ([2]; 120 min after iv injection): 2.34 ± 0.09
Ratio to Cerebellum: Striatum ([2]; 120 min after iv injection): 2.97 ± 0.16
Regional brain distribution: Cerebellum ([2]; 120 min after iv injection): 0.05 ± 0.01 % dose/g
